Measured values: PubChem BioAssay (NCI)
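Test compounds were applied to cells in 96-well plates for 48 hours at 5 doses. GI50 is the concentration that inhibits growth by half. TGI: concentration producing complete growth inhibition.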

How the values were obtained:
Test in all cases: inhibition of tumour cell growth, NCI panel, 48 h
UO-31 renal = test system: UO-31 renal
SR leukemia = test system: SR leukemia
SK-MEL-5 melanoma = test system: SK-MEL-5 melanoma
IGROV1 ovarian = test system: IGROV1 ovarian
MALME-3M melanoma = test system: MALME-3M melanoma
OVCAR-5 ovarian = test system: OVCAR-5 ovarian
SNB-75 CNS = test system: SNB-75 CNS
UACC-62 melanoma = test system: UACC-62 melanoma
NCI-H23 lung = test system: NCI-H23 lung
HT29 colon = test system: HT29 colon

Row | Compound | TGI (UO-31 renal) [µM] | TGI (SR leukemia) [µM] | TGI (SK-MEL-5 melanoma) [µM] | TGI (IGROV1 ovarian) [µM] | TGI (MALME-3M melanoma) [µM] | TGI (OVCAR-5 ovarian) [µM] | TGI (SNB-75 CNS) [µM] | TGI (UACC-62 melanoma) [µM] | TGI (NCI-H23 lung) [µM] | TGI (HT29 colon) [µM] | GI50 (SR leukemia) [µM] | GI50 (HT29 colon) [µM] | GI50 (SK-MEL-5 melanoma) [µM] | GI50 (IGROV1 ovarian) [µM] | GI50 (MALME-3M melanoma) [µM] | GI50 (OVCAR-5 ovarian) [µM] | GI50 (SNB-75 CNS) [µM] | GI50 (UACC-62 melanoma) [µM] | GI50 (NCI-H23 lung) [µM] | GI50 (UO-31 renal) [µM]
1 | COC(=O)C1(C)CCc2c(OC)ccc(OC)c2C1=O (stereo not given) | > 100 | > 100 | > 100 | > 100 | > 100 | > 100 | > 100 | > 100 | > 100 |  |  |  |  |  |  |  |  |  |  | 
2 | CCOC(=O)C1C(=S)NC(=O)C1C#N (stereo not given) | > 100 |  | > 100 | > 100 | > 100 | > 100 | > 100 | > 100 | > 100 | > 100 |  |  |  |  |  |  |  |  |  | 
3 | COc1cc(N2C(=O)[C@H](O)C2c2ccc(SC)cc2)cc(OC)c1OC (stereo not given in full) |  | > 100 | 0.0304 | > 100 | 74 | > 100 | > 100 | > 100 | > 100 | 0.0887 | < 0.01 | < 0.01 | < 0.01 | < 0.01 | 21.6 | 0.0237 | < 0.01 | < 0.01 | 0.0191 | 
4 | CCC(=O)C12OC3OC(C)(C)OC3C1OC(C)(C)O2 (stereo not given) | > 100 | > 100 |  | > 100 | > 100 | > 100 | > 100 | > 100 | > 100 | > 100 |  |  |  |  |  |  |  |  |  | 
5 | CCN(CC)CC1c2ccccc2C(CNc2ccccc2)N1C (stereo not given) | > 100 |  | > 100 | > 100 | > 100 | > 100 | > 100 | > 100 | > 100 |  |  |  |  |  |  |  |  |  |  | 
6 | Cc1ccc(-c2nnc(-c3nn(-c4ccccc4)c4nc5ccccc5nc34)o2)cc1 | 39 | > 100 | 25.8 | 41.7 |  | > 100 | 8.3 | 30.8 | 40.6 | > 100 |  |  |  |  |  |  |  |  |  | 
7 | COc1ccccc1-c1cc(=O)c2cc(C)cnc2[nH]1 | > 100 | > 100 | > 100 | > 100 | > 100 | > 100 |  | > 100 | > 100 | 84.5 |  |  | 20.4 |  |  |  |  |  |  | 
8 | COc1cccc(OC(=O)c2ccc(C(F)(F)F)nc2Nc2cc(Cl)ccc2C)c1 | > 100 |  | 12.5 | > 100 |  | 47.4 | > 100 | 20 | 49.5 | > 100 |  | 4.28 | 2.63 | 8.35 |  | 15.1 | 9.04 | 3.3 | 20.2 | 5.8
9 | C#C[C@]1(O)CCCC2=CC(=O)CC[C@@]21C | > 100 | > 100 | > 100 | > 100 | > 100 | > 100 |  |  | > 100 | > 100 |  |  |  |  |  |  |  |  |  | 
10 | CC#CCC1CCC(OCC)=CC1=O (stereo not given) | > 100 | > 100 | > 100 | > 100 |  | > 100 | > 100 | > 100 | > 100 | > 100 |  |  |  |  |  |  |  |  |  | 
